According to patent publication US4564619A, “Carbostyril derivative” (Otsuka Pharmaceutical Co., Ltd., priority 1982, dated 1986):

Legend:
coronary artery = assay: Increased amount of the blood flow in coronary artery, intravenous administration, anesthetized dog; assay type: in vivo
Experimental: (§1) The change of blood flow in coronary artery and the change of blood pressure were measured by a method according to Yakura et al., [Japan Journal of Pharmacology, Vol. 57, pages 380-391 (1961)] and according to Taira, et al. [Clin. Exp. Pharmacol. Physiol., Vol. 6, pages 301-316, (1976)].
(§2) An adult bastard dog of either sex weighing 8-13 kg was anesthetized with sodium pentobarbital at the rate of 30 mg/kg by intraveneous administration, then the dog was fixed in supination and was theracotomized under a condition of forced breathing. After another intraveneous administration of sodium heparin at the rate of 500 U/kg, 100 U/kg per hour, the dog was subjected to the following experiments.
(§3) (2) Intraveneous administration
(§4) Morawitz's cannula was cannulated to the coronary sinus venosus through the auricula dextra cordis, and the blood in vein was circulated to the right carotid. The blood flow was measured by an electromagnetic blood flow meter equipped with a blood flow observation probe in the extracorporeal circulation path of the vein. The systolic force was measured by a systolometer (pick-up) placed at the left ventricle of heart, the blood pressure was measured from the femoral artery, and the heart rate was measured from the pulse. A compound to be tested was administered through the cannula being cannulated in femoral vein. The increased amount of the blood flow in coronary artery after the administration of the test compound is shown in Table 4, also the change of blood pressure is shown in Table 5.

[1] = Change of blood pressure, intravenous administration, anesthetized dog; assay type: in vivo; design: unit not given here; details: femoral artery
Experimental: as §1, §2, §3, §4

[2] = tested on: ADP-induced aggregation in rabbit platelets; assay: Inhibition of ADP-induced platelet aggregation in rabbit platelet rich plasma; assay type: cell-based; details: Oryctolagus cuniculus, read-out: Inhibition rate of ADP-induced aggregation; for inhibition at 100 µM (stock): Concentration of the test compound solution 10^-4 mole; for inhibition at 10 µM (stock): Concentration of the test compound solution 10^-5 mole
Experimental: (§5) The platelet aggregation inhibitory effect was measured by using a Platelet Aggregation Tracer Model PAT-6M (manufactured by Nikoh Bio-Science Co., Ltd.) by a method according to Kimura, et al., [IGAKU-NO-AYUMI (Progress in Medicine), Vol. 114, No. 9, pp. 718-727, Aug. 30, 1980, and Nature, pp. 927-929, 1962].
(§6) The blood sample used for the test was a 1:9 (by volume) mixture of "3.8%-CITRATE"® (a registered trademark for 3.8%-sodium citrate, manufactured by Green Cross Corp.) and whole blood collected from rabbits. Said sample was subjected to 10-minute centrifugal separation at 1,000 r.p.m. (200xG) to obtain a platelet rich plasma (PRP). The PRP thus obtained was separated, and the remaining blood sample was further subjected to 15-minute centrifugal separation at 3,000 r.p.m. (2,000xG) to obtain a platelet poor plasma (PPP).
(§7) The number of platelets in the PRP was counted by the Brecher-Clonkite Method, and the PRP was diluted with the PPP to prepare a PRP sample with a platelet concentration of 600,000/microliter to prepare for an adenosine diphosphate (ADP)-induced aggregation test, and a collagen-induced aggregation test. 0.2 Milliliter of the PRP sample was added to 2 microliters of a solution of a test compound of predetermined concentration and this mixture was placed in a 37° C. thermostat for one minute. Then 20 microliters of an ADP or collagen solution was added to the mixture. In this test, the ADP solution was prepared by adjustment to a concentration of 7.5×10^-5 M by using Auren-Beronal buffer solution (pH 7.35). Further, the collagen solution was prepared by adjustment to a concentration of 200 micrograms/ml by using collagen reagent of "Holm"® (manufactured by Hormon-Chemie Munchen, GmbH.) which was diluted wih a physiological saline solution.
(§8) The transmittance of the resultant test mixture was determined and the change of transmittance was recorded by using the aggregometer at a stirrer speed of 1,100 r.p.m.
(§9) The platelet aggregation inhibitory effect of the test compound was measured in terms of inhibition rate (%) with respect to the aggregation rate of the controls. The aggregation rate was calculated from the following formula.
(§10) Aggregation rate=[(c-a)/(b-a)]×100
(§11) The percent inhibition is calculated from the following formula.
(§12) Inhibition rate (%)=[(A-B)/A]×100
(§13) The inhibitory effect of the test compounds on collagen-induced aggregation in rabbit platelets is shown in Table 1, similarly such effect on ADP-induced aggregation in rabbit platelets is shown in Table 2.

[3] = tested on: collagen-induced aggregation in rabbit platelets; assay: Inhibition of collagen-induced platelet aggregation in rabbit platelet rich plasma; assay type: cell-based; details: Oryctolagus cuniculus, read-out: Inhibition rate of collagen-induced aggregation; for inhibition at 100 µM (stock): Concentration of the test compound solution 10^-4 mole; for inhibition at 10 µM (stock): Concentration of the test compound solution 10^-5 mole
Experimental: as §5, §6, §7, §8, §9, §10, §11, §12, §13

| SMILES | Increased amount of the blood flow in coronary artery (coronary artery; 10 micrograms/kg) [mL/min] | Increased amount of the blood flow in coronary artery (coronary artery; 30 micrograms/kg) [mL/min] | Increased amount of the blood flow in coronary artery (coronary artery; 100 micrograms/kg) [mL/min] | Increased amount of the blood flow in coronary artery (coronary artery; 300 micrograms/kg) [mL/min] | Change of blood pressure ([1]; 3 micrograms/kg) | Change of blood pressure ([1]; 10 micrograms/kg) | Change of blood pressure ([1]; 30 micrograms/kg) | Change of blood pressure ([1]; 100 micrograms/kg) | Change of blood pressure ([1]; 300 micrograms/kg) | inhibition at 100 µM (stock) [2] [%] | inhibition at 10 µM (stock) [2] [%] | inhibition at 100 µM (stock) [3] [%] | inhibition at 10 µM (stock) [3] [%] | Increased amount of the blood flow in coronary artery (coronary artery; 1000 micrograms/kg) [mL/min] | Increased amount of the blood flow in coronary artery (coronary artery; 3 micrograms/kg) [mL/min] |
| --- | --- | --- | --- | --- | --- | --- | --- | --- | --- | --- | --- | --- | --- | --- | --- |
| COC(=O)C1=C(C)NC(C)=C(C(=O)OCCCOc2ccc3c(c2)NC(=O)CC3)C1c1cccc([N+](=O)[O-])c1 (stereo not shown) [Compound 6, 7-{3-[2,6-Dimethyl-5-methoxycarbonyl-4-(3-nitrophenyl)-1,4-dihydropyridin-3-carboxy]-propoxy}-3,4-dihydrocarbostyril] | 3 | 25 | 58 | 64 | -3 | -5 | -15 | -32 | -44 | 15 | 6 | 19 | 3 |  |  |
| COC(=O)C1=C(C)NC(C)=C(C(=O)OCCN(C(=O)CCCOc2ccc3[nH]c(=O)ccc3c2)C2CCCCC2)C1c1ccccc1 (stereo not shown) [Compound 35, N--[2-(1,4-Dihydro-2,6-dimethyl-5-methoxycarbonyl-4-phenylpyridin-3-carboxy)ethyl]-N--cyclohexyl-4-(6-carbostyriloxy)butyramide] |  |  | 5 | 17 |  | -4 | -6 | -9 | -26 | 100 | 89 | 100 | 100 | 47 |  |
| COC(=O)C1=C(C)NC(C)=C(C(=O)OCCOc2ccc3[nH]c(=O)ccc3c2)C1c1cccc([N+](=O)[O-])c1 (stereo not shown) [Compound 10, 6-{2-[2,6-Dimethyl-5-methoxycarbonyl-4-(3-nitrophenyl)-1,4-dihydropyridin-3-carboxy]-ethoxy}carbostyril] | 2 | 5 | 23 | 43 |  | -5 | -9 | -13 | -34 | 100 | 27 | 100 | 50 |  |  |
| COC(=O)C1=C(C)NC(C)=C(C(=O)OCCCOc2ccc(O)c3c2CCC(=O)N3)C1c1cccc([N+](=O)[O-])c1 (stereo not shown) [Compound 7, 5-{3-[2,6-Dimethyl-5-methoxycarbonyl-4-(3-nitrophenyl)-1,4-dihydropyridin-3-carboxy]-propoxy}-8-hydroxy-3,4-dihydrocarbostyril] |  | 1 | 15 | 47 |  | -2 | -4 | -9 | -14 | 14 | 3 | 15 | 3 |  |  |
| COC(=O)C1=C(C)NC(C)=C(C(=O)OCCN(C(=O)CCCOc2ccc3[nH]c(=O)ccc3c2)C2CCCCC2)C1c1ccccc1[N+](=O)[O-] (stereo not shown) [Compound 34, N--{2-[1,4-Dihydro-2,6-dimethyl-5-methoxycarbonyl-4-(2-nitrophenyl)pyridin-3-carboxy]ethyl}-N--cyclohexyl-4-(6-carbostyriloxy)butyramide] |  |  | 22 | 47 |  |  |  |  |  | 94 | 98 | 100 | 100 | 54 |  |
| CCN(CCOC(=O)C1=C(C)NC(C)=C(C(=O)OC)C1c1ccccc1)C(=O)CCCOc1ccc2[nH]c(=O)ccc2c1 (stereo not shown) [Compound 36, N--[2,(1,4-Dihydro-2,6-dimethyl-5-methoxycarbonyl-4-phenylpyridin-3-carboxy)ethyl]-N--ethyl-4-(6-carbostyriloxy)butyramide] |  |  | 4 | 12 |  |  |  |  |  | 98 | 55 | 100 | 100 | 38 |  |
| COC(=O)C1=C(C)NC(C)=C(C(=O)OCCN(C(=O)CCCOc2cccc3[nH]c(=O)ccc23)C2CCCCC2)C1c1cccc([N+](=O)[O-])c1 (stereo not shown) [Compound 33, N--{2-[1,4-Dihydro-2,6-dimethyl-5-methoxycarbonyl-4-(3-nitrophenyl)pyridin-3-carboxy]ethyl}-N--cyclohexyl-4-(5-carbostyriloxy)butyramide] |  |  | 1 | 4 |  |  |  |  |  | 98 | 25 | 100 | 34 | 48 |  |
| COC(=O)C1=C(C)NC(C)=C(C(=O)OCCCOc2ccc3c(c2)CCC(=O)N3)C1c1cccc([N+](=O)[O-])c1 (stereo not shown) [Compound 5, 6-{3-[2,6-Dimethyl-5-methoxycarbonyl-4-(3-nitrophenyl)-1,4-dihydropyridin-3-carboxy]-propoxy}-3,4-dihydrocarbostyril] | 12 | 47 | 89 | 77 |  |  |  |  |  | 20 | 4 | 38 | 12 |  | 3 |
| COC(=O)C1=C(C)NC(C)=C(C(=O)OCCCOc2ccc3[nH]c(=O)ccc3c2)C1c1ccccc1 (stereo not shown) [Compound 44, 6-[3-(2,6-Dimethyl-5-methoxycarbonyl-4-phenyl-1,4-dihydropyridin-3-carboxy)propoxy]-carbostyril] |  |  |  |  |  | -1 | -3 | -6 | -52 | 100 | 20 | 100 | 25 |  |  |
